pIC50: −log10 of the molar value.
Columns and labels:
Format in all cases: functional
[1] = test system: HCT-116; assay: Antiproliferative activity against human HCT-116 cells assessed as cell growth inhibition measured after 72 hrs by crystal violet staining based assay; conditions: HCT-116, 72 h
[2] = test system: NCI-H460; assay: Induction of apoptosis in human NCI-H460 cells assessed as early apoptotic cells measured after 72 hrs by Annexin V-FITC and propidium iodide staining based flow cytometry analysis (Rvb= 6.61%)
[3] = test system: NCI-H460; assay: Antiproliferative activity against human NCI-H460 cells assessed as cell growth inhibition measured after 72 hrs by crystal violet staining based assay; conditions: NCI-H460, 72 h
[4] = test system: SK-OV-3; assay: Antiproliferative activity against human SK-OV-3 cells assessed as cell growth inhibition measured after 72 hrs by crystal violet staining based assay; conditions: SK-OV-3, 72 h
[5] = test system: NCI-H460; assay: Induction of apoptosis in human NCI-H460 cells assessed as late apoptotic cells measured after 72 hrs by Annexin V-FITC and propidium iodide staining based flow cytometry analysis (Rvb= 6.93%)

Row | Compound | pIC50 [1] | Activity [2] | pIC50 [3] | pIC50 [4] | Activity [5]
1 | COc1cccc2c1C(=O)c1c(O)c3c(c(O)c1C2=O)C[C@@](O)(C(=O)CO)C[C@@H]3O[C@H]1C[C@H](N)[C@H](O)[C@H](C)O1 [DOXORUBICIN] | 7.24 | 7.16% | 8.37 | 7.59 | –
2 | COc1cc(CNC(=O)CCCC/C=C/C(C)C)ccc1O [CAPSAICIN] | 4.40 | 7.17% | 4.51 | 4.66 | 7.25%

From ChEMBL document CHEMBL5055675, “Apoptosis Inducing 1,3,4-Oxadiazole Conjugates of Capsaicin: Their In Vitro Antiproliferative and In Silico Studies” (ACS Med Chem Lett, 2021)
